Read-outs that look alike come from different tables or passages of the source.
How the values were obtained:
[1] = biological target: Nav 1.5 (Homo sapiens (Human), UniProt Q14524); experiment: Inhibition of sodium channels, Red Membrane Potential Dye FLIPR assay, veratridine depolarization; format: cell-based; conditions: HEK-293 cells overexpressing the channel; for inhibition at 10 µM: HEK-293 cells overexpressing Nav 1.5
[2] = biological target: Nav 1.7 (Homo sapiens (Human), UniProt Q15858); experiment: as above; format: cell-based; conditions: HEK-293 cells overexpressing the channel; for IC50: read-out: Nav1.7 IC50
Sequence of Nav 1.7 (Q15858 whole entry): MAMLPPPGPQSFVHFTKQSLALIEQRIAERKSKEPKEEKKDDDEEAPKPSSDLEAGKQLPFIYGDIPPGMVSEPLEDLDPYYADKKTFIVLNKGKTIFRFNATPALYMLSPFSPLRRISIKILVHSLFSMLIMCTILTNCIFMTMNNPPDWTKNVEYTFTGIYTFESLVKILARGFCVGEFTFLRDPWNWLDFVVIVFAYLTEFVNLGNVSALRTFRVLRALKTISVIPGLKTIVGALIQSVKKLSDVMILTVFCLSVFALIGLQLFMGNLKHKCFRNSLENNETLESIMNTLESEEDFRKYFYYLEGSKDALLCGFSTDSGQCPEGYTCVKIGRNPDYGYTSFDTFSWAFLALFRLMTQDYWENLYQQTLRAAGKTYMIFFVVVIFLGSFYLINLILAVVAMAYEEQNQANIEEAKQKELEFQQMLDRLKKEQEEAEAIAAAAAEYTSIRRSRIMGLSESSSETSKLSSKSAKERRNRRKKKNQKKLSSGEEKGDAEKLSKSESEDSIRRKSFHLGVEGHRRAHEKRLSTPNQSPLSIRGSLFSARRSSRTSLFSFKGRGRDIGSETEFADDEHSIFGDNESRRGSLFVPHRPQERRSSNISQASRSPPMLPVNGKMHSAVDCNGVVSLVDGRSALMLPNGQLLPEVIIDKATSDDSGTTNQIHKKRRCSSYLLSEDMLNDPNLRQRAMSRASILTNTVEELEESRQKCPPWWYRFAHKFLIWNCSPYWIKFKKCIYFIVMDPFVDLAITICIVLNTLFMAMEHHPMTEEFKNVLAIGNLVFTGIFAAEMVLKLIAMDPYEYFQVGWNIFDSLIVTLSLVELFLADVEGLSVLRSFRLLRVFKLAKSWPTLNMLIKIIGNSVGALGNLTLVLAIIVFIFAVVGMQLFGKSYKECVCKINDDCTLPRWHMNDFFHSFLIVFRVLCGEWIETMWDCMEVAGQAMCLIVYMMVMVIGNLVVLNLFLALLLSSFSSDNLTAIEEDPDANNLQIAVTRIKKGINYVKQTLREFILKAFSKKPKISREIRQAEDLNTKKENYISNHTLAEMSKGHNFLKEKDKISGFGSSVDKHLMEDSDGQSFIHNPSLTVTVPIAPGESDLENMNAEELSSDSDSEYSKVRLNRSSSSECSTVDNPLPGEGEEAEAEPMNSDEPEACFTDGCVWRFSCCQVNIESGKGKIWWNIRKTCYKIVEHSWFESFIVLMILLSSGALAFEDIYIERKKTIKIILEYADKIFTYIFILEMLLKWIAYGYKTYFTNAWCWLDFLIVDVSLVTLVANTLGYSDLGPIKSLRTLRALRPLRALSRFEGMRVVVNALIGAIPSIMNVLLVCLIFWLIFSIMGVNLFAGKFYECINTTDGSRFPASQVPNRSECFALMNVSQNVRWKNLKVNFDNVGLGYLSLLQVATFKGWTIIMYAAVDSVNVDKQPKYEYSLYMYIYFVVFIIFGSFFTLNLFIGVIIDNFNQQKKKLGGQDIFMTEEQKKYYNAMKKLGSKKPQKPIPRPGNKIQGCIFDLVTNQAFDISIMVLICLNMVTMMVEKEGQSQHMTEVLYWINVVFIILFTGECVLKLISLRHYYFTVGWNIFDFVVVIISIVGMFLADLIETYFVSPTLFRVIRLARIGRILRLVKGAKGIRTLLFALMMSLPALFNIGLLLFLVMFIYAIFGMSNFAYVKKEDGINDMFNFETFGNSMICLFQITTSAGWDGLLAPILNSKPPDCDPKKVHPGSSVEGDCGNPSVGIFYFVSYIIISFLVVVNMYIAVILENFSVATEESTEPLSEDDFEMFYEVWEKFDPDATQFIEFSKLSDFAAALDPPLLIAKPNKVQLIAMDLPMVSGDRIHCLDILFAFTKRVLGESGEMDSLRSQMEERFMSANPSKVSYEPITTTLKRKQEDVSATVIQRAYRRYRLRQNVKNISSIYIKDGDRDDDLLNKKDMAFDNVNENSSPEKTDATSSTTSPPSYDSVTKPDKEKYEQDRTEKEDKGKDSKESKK

[3] = read-out: Nav1.5 IC50 (bound given in μM)

Sequence of Nav 1.5 (Q14524 whole entry): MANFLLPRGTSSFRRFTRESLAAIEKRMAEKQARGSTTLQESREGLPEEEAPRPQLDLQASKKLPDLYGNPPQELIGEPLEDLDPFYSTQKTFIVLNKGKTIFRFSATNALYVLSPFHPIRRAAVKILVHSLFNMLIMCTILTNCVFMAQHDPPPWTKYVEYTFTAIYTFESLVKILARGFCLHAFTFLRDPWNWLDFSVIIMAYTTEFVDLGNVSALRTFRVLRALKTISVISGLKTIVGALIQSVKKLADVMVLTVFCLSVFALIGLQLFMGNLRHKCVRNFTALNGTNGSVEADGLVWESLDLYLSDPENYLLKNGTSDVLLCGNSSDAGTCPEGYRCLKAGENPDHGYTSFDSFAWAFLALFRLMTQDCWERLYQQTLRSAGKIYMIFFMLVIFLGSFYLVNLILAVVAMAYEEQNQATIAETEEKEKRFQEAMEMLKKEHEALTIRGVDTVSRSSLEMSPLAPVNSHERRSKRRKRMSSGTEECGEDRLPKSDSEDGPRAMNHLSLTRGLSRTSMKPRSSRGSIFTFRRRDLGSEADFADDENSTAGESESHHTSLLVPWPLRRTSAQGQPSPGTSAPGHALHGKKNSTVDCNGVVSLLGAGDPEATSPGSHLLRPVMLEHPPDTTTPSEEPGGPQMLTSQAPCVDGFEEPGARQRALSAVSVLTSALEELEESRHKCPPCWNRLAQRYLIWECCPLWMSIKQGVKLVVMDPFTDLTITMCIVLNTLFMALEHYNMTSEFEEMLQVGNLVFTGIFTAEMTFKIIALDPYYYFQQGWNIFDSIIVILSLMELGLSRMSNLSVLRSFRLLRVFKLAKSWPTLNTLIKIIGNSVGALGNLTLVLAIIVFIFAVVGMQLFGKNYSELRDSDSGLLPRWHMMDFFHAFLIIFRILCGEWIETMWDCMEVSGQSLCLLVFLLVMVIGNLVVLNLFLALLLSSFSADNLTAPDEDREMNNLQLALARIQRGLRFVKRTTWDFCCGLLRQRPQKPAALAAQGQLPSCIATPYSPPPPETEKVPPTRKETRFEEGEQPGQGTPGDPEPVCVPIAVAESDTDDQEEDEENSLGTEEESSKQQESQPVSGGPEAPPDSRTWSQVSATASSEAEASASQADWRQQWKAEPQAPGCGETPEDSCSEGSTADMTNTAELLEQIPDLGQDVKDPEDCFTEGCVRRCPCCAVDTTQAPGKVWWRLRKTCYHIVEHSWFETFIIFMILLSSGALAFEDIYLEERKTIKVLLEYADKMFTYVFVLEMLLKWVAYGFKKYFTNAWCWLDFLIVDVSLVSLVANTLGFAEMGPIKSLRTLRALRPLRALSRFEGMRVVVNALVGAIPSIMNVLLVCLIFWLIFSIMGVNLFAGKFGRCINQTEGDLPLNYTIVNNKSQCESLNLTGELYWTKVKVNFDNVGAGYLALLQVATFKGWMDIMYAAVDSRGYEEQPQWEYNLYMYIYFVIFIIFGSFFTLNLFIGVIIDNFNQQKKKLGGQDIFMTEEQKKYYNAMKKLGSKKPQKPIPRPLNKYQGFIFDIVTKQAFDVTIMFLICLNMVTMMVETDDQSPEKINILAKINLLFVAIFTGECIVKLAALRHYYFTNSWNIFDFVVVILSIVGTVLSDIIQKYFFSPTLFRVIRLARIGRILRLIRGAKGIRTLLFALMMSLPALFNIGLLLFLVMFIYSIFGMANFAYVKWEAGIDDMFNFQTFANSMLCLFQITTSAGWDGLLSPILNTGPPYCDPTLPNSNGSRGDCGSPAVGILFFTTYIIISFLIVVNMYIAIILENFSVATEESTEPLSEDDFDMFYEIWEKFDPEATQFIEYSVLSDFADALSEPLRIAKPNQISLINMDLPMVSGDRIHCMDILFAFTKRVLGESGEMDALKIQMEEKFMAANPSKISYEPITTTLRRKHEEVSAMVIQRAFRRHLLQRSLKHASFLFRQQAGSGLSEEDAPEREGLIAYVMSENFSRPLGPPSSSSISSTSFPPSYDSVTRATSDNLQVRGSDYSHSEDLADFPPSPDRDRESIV

Compound | IC50 [2] | IC50 [1, 3] | other results
COCCCCc1cc(C(F)(F)F)ccc1[C@@H]1CCOc2cc(S(=O)(=O)Nc3cccc(F)n3)ccc21 [Example 151, (S&R)—N-(6-fluoropyridin-2-yl)-4-(2-(4-methoxybutyl)-4-(trifluoromethyl)phenyl)chroman-7-sulfonamide] | 390 nM |  | Nav1.5 % inhibition @ 10 μM [1]: 57%
Cn1nccc1-c1cc(Cl)ccc1[C@H]1CCOc2cc(S(=O)(=O)Nc3cccc(F)n3)ccc21 [Example 32, (S&R)-4-(4-chloro-2-(1-methyl-1H-pyrazol-5-yl)phenyl)-N-(6-fluoropyridin-2-yl)chroman-7-sulfonamide] | 151 nM | > 10 µM | 
O=S(=O)(Nc1cccc(F)n1)c1ccc2c(c1)OCC[C@H]2c1ccc(C(F)(F)F)cc1OC1CCOCC1 [Example-176, (R&S)—N-(6-fluoropyridin-2-yl)-4-(2-((tetrahydro-2H-pyran-4-yl)oxy)-4-(trifluoromethyl)phenyl)chroman-7-sulfonamide] | 1310 nM |  | Nav1.5 % inhibition @ 10 μM [1]: 57%
O=S1(=O)CCN(c2cc(C(F)(F)F)ccc2[C@@H]2CCOc3cc(S(=O)(=O)Nc4ncccn4)ccc32)CC1 [Example-232, (S&R)-4-(2-(1,1-dioxidothiomorpholino)-4-(trifluoromethyl)phenyl)-N-(pyrimidin-2-yl)chroman-7-sulfonamide] |  | > 10 µM | Nav1.7 inhibition @ 10 μM ([2]; 10 μM): 36%
COCCOc1cc(C(F)(F)F)ccc1[C@H]1CCOc2cc(S(=O)(=O)Nc3cccnn3)ccc21 (racemic) [Example 128, (R/S)-4-(2-(2-methoxyethoxy)-4-(trifluoromethyl)phenyl)-N-(pyridazin-3-yl)chroman-7-sulfonamide] | 145 nM |  | inhibition at 10 µM [1]: 55%
COc1cc(C(F)(F)F)ccc1[C@H]1CCOc2cc(S(=O)(=O)Nc3ncccn3)ccc21 [Example-227, (S&R)-4-(2-methoxy-4-(trifluoromethyl)phenyl)-N-(pyrimidin-2-yl)chroman-7-sulfonamide] | 177 nM | > 10 µM | 
O=S(=O)(Nc1cccnn1)c1ccc2c(c1)OCC[C@@H]2c1ccc(C(F)(F)F)cc1CCCF (racemic) [Example 161, (R/S)-4-(2-(3-fluoropropyl)-4-(trifluoromethyl)phenyl)-N-(pyridazin-3-yl)chroman-7-sulfonamide] | 12 nM |  | IC50 ([1]; read-out: Nav1.5 IC50): 1.35 µM
CCCc1cc(C(F)(F)F)ccc1C1CCOc2cc(S(=O)(=O)Nc3cccnn3)ccc21 (centres unmarked) [Example-243] | 92 nM |  | IC50 ([1]; read-out: Nav1.5 IC50): 2.41 µM
O=S(=O)(Nc1cccnn1)c1ccc2c(c1)OCC[C@H]2c1ccc(C(F)(F)F)cc1-c1ccc(F)nc1 [Example 41, (S&R)-4-(2-(6-Fluoropyridin-3-yl)-4-(trifluoromethyl)phenyl)-N-(pyridazin-3-yl)chromane-7-sulfonamide] | 622 nM | > 10 µM | 
Cc1nc(-c2cc(C(F)(F)F)ccc2[C@H]2CCOc3cc(S(=O)(=O)Nc4cccc(F)n4)ccc32)cs1 [Example 62] | 5 nM |  | Nav1.5 % inhibition @ 10 μM [1]: 42%
O=S(=O)(Nc1ncc(F)cn1)c1ccc2c(c1)OCC[C@@H]2c1ccc(C(F)(F)F)cc1CCCCF (racemic) [Example 164, (R/S)-4-(2-(4-fluorobutyl)-4-(trifluoromethyl)phenyl)-N-(5-fluoropyrimidin-2-yl)chroman-7-sulfonamide] | 61 nM |  | inhibition at 10 µM [1]: 81%
O=S(=O)(Nc1ccncn1)c1ccc2c(c1)OCC[C@@H]2c1ccc(C(F)(F)F)cc1CCCCF (racemic) [Example 165, (R/S)-4-(2-(4-fluorobutyl)-4-(trifluoromethyl)phenyl)-N-(pyrimidin-4-yl)chroman-7-sulfonamide] | 5 nM |  | IC50 ([1]; read-out: Nav1.5 IC50): 0.303 µM
O=C(O)c1ccc(-c2cc(C(F)(F)F)ccc2[C@H]2CCOc3cc(S(=O)(=O)Nc4cccnn4)ccc32)cc1 (racemic) [Example-191, (R/S)-2′-(7-(N-(pyridazin-3-yl)sulfamoyl)chroman-4-yl)-5′-(trifluoromethyl)-[1,1′-biphenyl]-4-carboxylic acid] | 671 nM | > 10 µM | 
